According to patent US20060078629A1, “Nutritional compositions and use thereof” (priority 2003, published 2006):

What was measured:
[1] = tested on: chemically induced cancers; conditions: in vivo; cited from earlier work
[2] = tested on: DNA damage in various tissues; conditions: Food Chem Toxicol 2000, 38:15; cited from earlier work
[3] = slow (e.g. 20 minutes) intravenous injection, 400 mg glutathione in 20 ml saline
Description: According to one aspect of the invention, the intravenous administration of glutathione is used to achieve the desired blood levels. […] Repeated injections may be necessary in severely ill patients.

Compound | prevention of chemically induced cancers [1] | decrease of DNA damage in various tissues [2] | achieving the desired blood glutathione levels [3]
OCc1c[nH]c2ccccc12 [Example I3C, Indole-3-carbinol] | up to 90% | 67-82% | 
N[C@@H](CCC(=O)N[C@@H](CS)C(=O)NCC(=O)O)C(=O)O [glutathione] |  |  | effective
